# Measured values from publication PMC8074465, “Synthesis of oxadiazole-2-oxide derivatives as potential drug candidates for schistosomiasis targeting SjTGR” (Parasites & Vectors, 2021).
# “And” between values parts separate entries of the source, which are not always exact repeats. Identical values can stand only once.
# Target: T1, rSjTGR-Sec (Schistosoma japonicum, UniProt B5THG7)
# T1 sequence (B5THG7 1-596): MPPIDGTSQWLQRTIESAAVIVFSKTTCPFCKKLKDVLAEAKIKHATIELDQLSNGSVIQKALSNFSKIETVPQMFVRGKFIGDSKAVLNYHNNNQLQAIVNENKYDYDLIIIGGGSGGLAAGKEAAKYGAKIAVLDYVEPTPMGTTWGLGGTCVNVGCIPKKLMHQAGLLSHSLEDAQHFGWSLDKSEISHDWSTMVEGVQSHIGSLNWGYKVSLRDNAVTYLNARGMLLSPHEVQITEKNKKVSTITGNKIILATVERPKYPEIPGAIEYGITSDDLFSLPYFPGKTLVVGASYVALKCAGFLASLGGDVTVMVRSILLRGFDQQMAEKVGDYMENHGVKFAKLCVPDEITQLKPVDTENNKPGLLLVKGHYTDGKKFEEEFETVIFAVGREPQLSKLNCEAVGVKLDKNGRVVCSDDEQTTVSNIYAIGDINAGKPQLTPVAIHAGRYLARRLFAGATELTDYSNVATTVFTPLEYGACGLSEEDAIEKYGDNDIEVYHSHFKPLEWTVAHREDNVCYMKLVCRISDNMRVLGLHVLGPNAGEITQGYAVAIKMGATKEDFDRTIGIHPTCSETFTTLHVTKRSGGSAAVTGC
# Experiment: Inhibition of TrxR activity of rSjTGR-Sec (DTNB reduction, absorbance 412 nm)
# Assay type: biochemical
# Conditions: DTNB, pH 7.0, 25 °C, triplicate, >50 μM = flat response within range tested, read-out: IC50 of rSjTGR-Sec
# Experimental: The rSjTGR-Sec was expressed and harvested as described previously. […] The rSjTGR-Sec was purified by His Mag™ Agarose beads according to manufacturer’s instructions. The concentration of purified rSjTGR-Sec was determined using a Bradford assay kit (Sangon, China), and the protein was identified by sodium dodecyl sulfate polyacrylamide gel electrophoresis (SDS-PAGE) and stored at 4 °C [20].
# The novel furoxan derivatives in this work were dissolved in DMSO with a storage solution concentration of 64 millimoles per liter. The analysis of TrxR activity of SWAP containing wtSjTGR and rSjTGR-Sec was performed based on methods described previously. Analysis of the inhibitory activity of the compounds against the TrxR activity of SWAP containing wtSjTGR and rSjTGR-Sec described in this paper was also based on a previously described method. The reaction was performed in 0.1 M potassium phosphate buffer (pH 7.0) containing 10 mM EDTA, 100 µM nicotinamide adenine dinucleotide phosphate (NADPH), 0.2 µg supernatant of SWAP containing wtSjTGR or 0.6 µg rSjTGR-Sec, and the studied compounds with different concentrations at 25 °C in a final volume of 200 μL, and was initiated by adding 3 mM DTNB. […] All assays were done in triplicate.
row,Structure (SMILES),IC50
1,"[O-][n+]1onc(-c2ccncc2)c1CO [6a, 3-(hydroxymethyl)-4-(pyridin-4-yl)-1,2,5-oxadiazole 2-oxide]",0.036 ± 0.002 µM
2,"[O-][n+]1onc(-c2cccnc2)c1CO [6b, 3-(hydroxymethyl)-4-(pyridin-3-yl)-1,2,5-oxadiazole 2-oxide]",0.39 ± 0.02 µM
3,"COc1ccc(-c2no[n+]([O-])c2CO)cn1 [6c, 3-(hydroxymethyl)-4-(6-methoxypyridin-3-yl)-1,2,5-oxadi-azole 2-oxide]",2.4 µM and 2.38 µM
4,"[O-][n+]1onc(-c2ccc(C(F)(F)F)nc2)c1CO [6d, 3-(hydroxymethyl)-4-(6-(trifluoromethyl)pyridine-3-yl)-1,2,5-oxadiazole 2-oxide]",0.0558 ± 0.00318 µM
5,"CC(=O)OCc1c(-c2ccncc2)no[n+]1[O-] [7aa, 3-(acetoxymethyl)-4-(pyridin-4-yl)-1,2,5-oxadiazole 2-oxide]",> 50 µM
6,"CCC(=O)OCc1c(-c2ccncc2)no[n+]1[O-] [7ab, 3-((propionyloxy)methyl)-4-(pyridin-4-yl)-1,2,5-oxadiazole 2-oxide]",> 50 µM
7,"CCCC(=O)OCc1c(-c2ccncc2)no[n+]1[O-] [7ac, 3-((butyryloxy)methyl)-4-(pyridin-4-yl)-1,2,5-oxadiazole 2-oxide]",> 50 µM
8,"CC(C)(C)C(=O)OCc1c(-c2ccncc2)no[n+]1[O-] [7ad, 3-((pivaloyloxy)methyl)-4-(pyridin-4-yl)-1,2,5-oxadiazole 2-oxide]",> 50 µM
9,"O=C(CCl)OCc1c(-c2ccncc2)no[n+]1[O-] [7ae, 3-((2-chloroacetoxy)methyl)-4-(pyridin-4-yl)-1,2,5-oxadiazole 2-oxide]",> 50 µM
10,"O=C(OCc1c(-c2ccncc2)no[n+]1[O-])c1ccccc1 [7af, 3-((benzoyloxy)methyl)-4-(pyridin-4-yl)-1,2,5-oxadiazole 2-oxide]",3.23 ± 0.05 µM
11,"O=C(OCc1c(-c2ccncc2)no[n+]1[O-])c1ccc(F)cc1 [7ag, 3-(((4-fluorobenzoyl)oxy)methyl)-4-(pyridin-4-yl)-1,2,5-oxadiazole 2-oxide]",> 50 µM
12,"O=C(OCc1c(-c2ccncc2)no[n+]1[O-])c1c(F)c(F)c(F)c(F)c1F [7ah, 3-(((perfluorobenzoyl)oxy)methyl)-4-(pyridin-4-yl)-1,2,5-oxadiazole 2-oxide]",> 50 µM
13,"O=C(OCc1c(-c2ccncc2)no[n+]1[O-])c1cc(C(F)(F)F)cc(C(F)(F)F)c1 [7ai, 3-(((3,5-bis(trifluoromethyl)benzoyl)oxy)methyl)-4-(pyridin-4-yl)-1,2,5-oxadiazole 2-oxide]",> 50 µM
14,"CC(=O)OCc1c(-c2cccnc2)no[n+]1[O-] [7ba, 3-(acetoxymethyl)-4-(pyridin-3-yl)-1,2,5-oxadiazole 2-oxide]",> 50 µM
15,"CCC(=O)OCc1c(-c2cccnc2)no[n+]1[O-] [7bb, 3-((propionyloxy)methyl)-4-(pyridin-3-yl)-1,2,5-oxadiazole 2-oxide]",> 50 µM
16,"CCCC(=O)OCc1c(-c2cccnc2)no[n+]1[O-] [7bc, 3-((butyryloxy)methyl)-4-(pyridin-3-yl)-1,2,5-oxadiazole 2-oxide]",> 50 µM
17,"CC(C)(C)C(=O)OCc1c(-c2cccnc2)no[n+]1[O-] [7bd, 3-((pivaloyloxy)methyl)-4-(pyridin-3-yl)-1,2,5-oxadiazole 2-oxide]",> 50 µM
18,"O=C(CCl)OCc1c(-c2cccnc2)no[n+]1[O-] [7be, 3-((2-chloroacetoxy)methyl)-4-(pyridin-3-yl)-1,2,5-oxadiazole 2-oxide]",14.8 ± 3.67 µM
19,"O=C(OCc1c(-c2cccnc2)no[n+]1[O-])c1ccccc1 [7bf, 3-((benzoyloxy)methyl)-4-(pyridin-3-yl)-1,2,5-oxadiazole 2-oxide]",> 50 µM

row,Structure (SMILES),IC50
1,"O=C(OCc1c(-c2cccnc2)no[n+]1[O-])c1ccc(F)cc1 [7bg, 3-(((4-fluorobenzoyl)oxy)methyl)-4-(pyridine-3-yl)-1,2,5-oxadiazole 2-oxide]",> 50 µM
2,"O=C(OCc1c(-c2cccnc2)no[n+]1[O-])c1c(F)c(F)c(F)c(F)c1F [7bh, 3-(((perfluorobenzoyl)oxy)methyl)-4-(pyridine-3-yl)-1,2,5-oxadiazole 2-oxide]",> 50 µM
3,"O=C(OCc1c(-c2cccnc2)no[n+]1[O-])c1cc(C(F)(F)F)cc(C(F)(F)F)c1 [7bi, 3-(((3,5-bis(trifluoromethyl)benzoyl)oxy)methyl)-4-(pyridin-3-yl)-1,2,5-oxadiazole 2-oxide]",> 50 µM
4,"C=CC(=O)OCc1c(-c2cccnc2)no[n+]1[O-] [7bj, 3-((acryloyloxy)methyl)-4-(pyridin-3-yl)-1,2,5-oxadiazole 2-oxide]",> 50 µM
5,"O=C(OCc1c(-c2cccnc2)no[n+]1[O-])c1cccs1 [7bk, 4-(pyridin-3-yl)-3-(((thiophene-2-carbonyl)oxy)methyl) -1,2,5-oxadiazole 2-oxide]",> 50 µM
6,"COc1ccc(-c2no[n+]([O-])c2COC(C)=O)cn1 [7ca, 3-(acetoxymethyl)-4-(6-methoxypyridin-3-yl)-1,2,5-oxadiazole 2-oxide]",> 50 µM
7,"COc1ccc(-c2no[n+]([O-])c2COC(=O)c2ccccc2)cn1 [7cf, 3-((benzoyloxy)methyl)-4-(6-methoxypyridin-3-yl)-1,2,5-oxadiazole 2-oxide]",> 50 µM
8,"CC(=O)OCc1c(-c2ccc(C(F)(F)F)nc2)no[n+]1[O-] [7da, 3-(acetoxymethyl)-4-(6-(trifluoromethyl)pyridin-3-yl)-1,2,5-oxadiazole 2-oxide]",> 50 µM
9,"O=C(OCc1c(-c2ccc(C(F)(F)F)nc2)no[n+]1[O-])c1ccccc1 [7df, 3-((benzoyloxy)methyl)-4-(6-(trifluoromethyl)pyridin-3-yl)-1,2,5-oxadiazole 2-oxide]",> 50 µM
10,"[O-][n+]1onc(-c2ccncc2)c1CNc1ccccc1 [9aa, 3-((phenylamino)methyl)-4-(pyridin-4-yl)-1,2,5-oxad-iazole 2-oxide]",> 50 µM
11,"[O-][n+]1onc(-c2ccncc2)c1CNc1ccc(OC(F)(F)F)cc1 [9ab, 4-(pyridin-4-yl)-3-(((4-(trifluoromethoxy)phenyl)amino)methyl)-1,2,5-oxadiazole 2-oxide]",1.52 ± 0.2 µM
12,"[O-][n+]1onc(-c2ccncc2)c1CN1CCN(c2ccc(F)cc2)CC1 [9ac, 3-((4-(4-fluorophenyl)piperazin-1-yl)methyl)-4-(pyridin-4-yl)-1,2,5-oxadiazole 2-oxide]",> 50 µM
13,"[O-][n+]1onc(-c2ccncc2)c1CN1CCN(c2cccc(C(F)(F)F)c2)CC1 [9ad, 4-(pyridin-4-yl)-3-((4-(3-(trifluoromethyl)phenyl)piperazin-1-yl)methyl)-1,2,5-oxadiazole 2-oxide]",> 50 µM
14,"[O-][n+]1onc(-c2cccnc2)c1CNc1ccccc1 [9ba, 3-((phenylamino)methyl)-4-(pyridin-3-yl)-1,2,5-oxadiazole 2-oxide]",> 50 µM
15,"[O-][n+]1onc(-c2cccnc2)c1CNc1ccc(OC(F)(F)F)cc1 [9bb, 4-(pyridin-3-yl)-3-(((4-(trifluoromethoxy)phenyl)amino)methyl)-1,2,5-oxadiazole 2-oxide]",> 50 µM
16,"[O-][n+]1onc(-c2cccnc2)c1CN1CCN(c2ccc(F)cc2)CC1 [9bc, 3-((4-(4-fluorophenyl)piperazin-1-yl)methyl)-4-(pyridin-3-yl)-1,2,5-oxadiazole 2-oxide]",> 50 µM
17,"COc1ccc(-c2no[n+]([O-])c2CNc2ccccc2)cn1 [9ca, 4-(6-methoxypyridin-3-yl)-3-((phenylamino)methyl)-1,2,5-oxadiazole 2-oxide]",> 50 µM
18,"[O-][n+]1onc(-c2ccc(C(F)(F)F)nc2)c1CNc1ccccc1 [9da, 3-((phenylamino)methyl)-4-(6-(trifluoromethyl)pyridin-3-yl)-1,2,5-oxadiazole 2-oxide]",3.73 ± 1.67 µM

# Same assay, conditions: IC50 of rSjTGR-Sec, DTNB, pH 7.0, 25 °C, triplicate, >50 μM = flat response within range tested
row,Structure (SMILES),IC50
1,"Cc1ccc(S(=O)(=O)N(Cc2c(-c3cccnc3)no[n+]2[O-])O[Si](C)(C)C(C)(C)C)cc1 [9be, 3-(((N-((tert-butyldimethylsilyl)oxy)-4-methylphenyl)sulfonamido)methyl)-4-(pyridin-3-yl)-1,2,5-oxadiazole 2-oxide]",0.22 ± 0.01 µM
2,"N#Cc1c(-c2ccccc2)no[n+]1[O-] [Furoxan, reference compound]",5.87 ± 1.37 µM

# Same assay, conditions: furoxan as positive control
row,Structure (SMILES),inhibitory effect on rSjTGR-Sec (in words)
1,"O=C(CCl)OCc1c(-c2ccncc2)no[n+]1[O-] [7ae, 3-((2-chloroacetoxy)methyl)-4-(pyridin-4-yl)-1,2,5-oxadiazole 2-oxide]",did not show an effective inhibitory effect
2,"COc1ccc(-c2no[n+]([O-])c2COC(=O)c2ccccc2)cn1 [7cf, 3-((benzoyloxy)methyl)-4-(6-methoxypyridin-3-yl)-1,2,5-oxadiazole 2-oxide]",did not show an inhibitory effect

# Same assay, conditions: read-out: IC50 of rSjTGR-Sec
row,Structure (SMILES),IC50
1,"[O-][n+]1onc(-c2ccncc2)c1CO [6a, 3-(hydroxymethyl)-4-(pyridin-4-yl)-1,2,5-oxadiazole 2-oxide]",0.036 µM
2,"[O-][n+]1onc(-c2ccc(C(F)(F)F)nc2)c1CO [6d, 3-(hydroxymethyl)-4-(6-(trifluoromethyl)pyridine-3-yl)-1,2,5-oxadiazole 2-oxide]",0.0075 µM and 0.0558 µM
